Experimental data reported in patent publication US20050085463A1 (priority 2003, published 2005).

Columns and labels:
M1 muscarinic receptor = molecular target: T1, M1 muscarinic receptor (Homo sapiens, UniProt P11229); assay: R-SAT competitive antagonist assay; type: cell-based; parameters: expressed in transfected cells; host or cells: NIH/3T3; settings: nr = no significant antagonist or inverse agonist activity up to 1 μM, nr* = nr but significant agonist activity
T1 sequence (P11229 1-460): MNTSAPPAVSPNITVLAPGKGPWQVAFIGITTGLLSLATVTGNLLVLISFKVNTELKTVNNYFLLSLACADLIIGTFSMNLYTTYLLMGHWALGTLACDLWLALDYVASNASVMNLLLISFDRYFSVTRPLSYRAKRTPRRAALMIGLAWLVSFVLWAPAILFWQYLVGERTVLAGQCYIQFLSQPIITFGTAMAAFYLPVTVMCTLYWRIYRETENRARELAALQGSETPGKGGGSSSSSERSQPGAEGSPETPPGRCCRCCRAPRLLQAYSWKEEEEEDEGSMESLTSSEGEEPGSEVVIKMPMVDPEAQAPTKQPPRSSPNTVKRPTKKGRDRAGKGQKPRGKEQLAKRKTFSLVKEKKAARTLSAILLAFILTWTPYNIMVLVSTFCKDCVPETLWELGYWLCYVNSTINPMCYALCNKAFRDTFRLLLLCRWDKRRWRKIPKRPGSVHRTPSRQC

5-HT1A receptor [1] = molecular target: T2, 5-HT1A receptor (Homo sapiens, UniProt P08908); assay: R-SAT agonist assay; type: cell-based; parameters: expressed in transfected cells; host or cells: NIH/3T3; settings: relative to 8-OH-DPAT
T2 sequence (P08908 1-422): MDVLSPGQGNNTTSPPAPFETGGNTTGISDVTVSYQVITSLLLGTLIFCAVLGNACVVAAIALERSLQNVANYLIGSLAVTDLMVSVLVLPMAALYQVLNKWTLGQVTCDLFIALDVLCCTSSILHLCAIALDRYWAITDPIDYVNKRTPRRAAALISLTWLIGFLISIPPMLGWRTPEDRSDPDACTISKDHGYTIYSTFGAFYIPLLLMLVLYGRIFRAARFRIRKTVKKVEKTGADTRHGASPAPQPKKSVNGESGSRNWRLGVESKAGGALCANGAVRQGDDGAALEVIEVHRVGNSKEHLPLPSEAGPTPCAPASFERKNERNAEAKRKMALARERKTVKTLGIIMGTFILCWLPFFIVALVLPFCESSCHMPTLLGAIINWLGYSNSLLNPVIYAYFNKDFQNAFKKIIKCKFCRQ

M4 muscarinic receptor = molecular target: T3, M4 muscarinic receptor (Homo sapiens, UniProt P08173); assay: R-SAT competitive antagonist assay; settings: nr = no significant antagonist or inverse agonist activity up to 1 μM, nr* = nr but significant agonist activity
T3 sequence (P08173 1-479): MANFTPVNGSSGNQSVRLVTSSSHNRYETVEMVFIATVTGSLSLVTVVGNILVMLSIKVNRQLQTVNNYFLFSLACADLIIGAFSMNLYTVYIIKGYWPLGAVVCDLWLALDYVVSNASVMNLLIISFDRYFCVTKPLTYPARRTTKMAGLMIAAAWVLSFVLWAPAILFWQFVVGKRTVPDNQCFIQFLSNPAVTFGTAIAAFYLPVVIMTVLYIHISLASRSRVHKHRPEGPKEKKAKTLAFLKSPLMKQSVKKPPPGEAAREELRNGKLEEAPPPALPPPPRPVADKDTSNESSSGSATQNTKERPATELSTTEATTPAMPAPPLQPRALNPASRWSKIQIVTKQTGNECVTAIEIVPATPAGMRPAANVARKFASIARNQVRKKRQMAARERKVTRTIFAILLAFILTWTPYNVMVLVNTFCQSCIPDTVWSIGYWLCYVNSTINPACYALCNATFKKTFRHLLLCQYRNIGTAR

5-HT6A receptor = 5-HT6A receptor (Homo sapiens, UniProt P50406); assay: R-SAT inverse agonist assay; settings: R-SAT; nr = no significant antagonist or inverse agonist activity up to 1 μM
5-HT1A receptor [2] = molecular target: T2, 5-HT1A receptor; assay: R-SAT competitive antagonist assay
[3] = molecular target: T4, α1A (Alpha 1A) adrenergic receptor (Homo sapiens, UniProt P35348); settings: R-SAT; nr = no significant antagonist or inverse agonist activity up to 1 μM; nr* = nr but significant agonist activity
T4 sequence (P35348 1-466): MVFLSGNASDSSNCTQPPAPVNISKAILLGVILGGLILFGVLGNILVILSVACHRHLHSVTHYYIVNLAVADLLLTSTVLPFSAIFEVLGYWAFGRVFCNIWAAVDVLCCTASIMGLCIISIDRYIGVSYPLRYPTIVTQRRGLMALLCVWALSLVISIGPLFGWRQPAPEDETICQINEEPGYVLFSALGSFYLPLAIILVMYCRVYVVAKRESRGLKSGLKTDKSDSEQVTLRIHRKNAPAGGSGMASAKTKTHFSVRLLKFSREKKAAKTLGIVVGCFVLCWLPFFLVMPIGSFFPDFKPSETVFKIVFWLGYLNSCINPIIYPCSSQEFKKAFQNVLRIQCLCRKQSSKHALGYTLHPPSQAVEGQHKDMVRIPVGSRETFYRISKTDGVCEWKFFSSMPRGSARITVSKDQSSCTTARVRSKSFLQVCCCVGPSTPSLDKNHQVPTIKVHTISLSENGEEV

M5 muscarinic receptor = molecular target: T5, M5 muscarinic receptor (Homo sapiens, UniProt P08912); assay: R-SAT competitive antagonist assay; settings: nr = no significant antagonist or inverse agonist activity up to 1 μM, nr* = nr but significant agonist activity
T5 sequence (P08912 1-532): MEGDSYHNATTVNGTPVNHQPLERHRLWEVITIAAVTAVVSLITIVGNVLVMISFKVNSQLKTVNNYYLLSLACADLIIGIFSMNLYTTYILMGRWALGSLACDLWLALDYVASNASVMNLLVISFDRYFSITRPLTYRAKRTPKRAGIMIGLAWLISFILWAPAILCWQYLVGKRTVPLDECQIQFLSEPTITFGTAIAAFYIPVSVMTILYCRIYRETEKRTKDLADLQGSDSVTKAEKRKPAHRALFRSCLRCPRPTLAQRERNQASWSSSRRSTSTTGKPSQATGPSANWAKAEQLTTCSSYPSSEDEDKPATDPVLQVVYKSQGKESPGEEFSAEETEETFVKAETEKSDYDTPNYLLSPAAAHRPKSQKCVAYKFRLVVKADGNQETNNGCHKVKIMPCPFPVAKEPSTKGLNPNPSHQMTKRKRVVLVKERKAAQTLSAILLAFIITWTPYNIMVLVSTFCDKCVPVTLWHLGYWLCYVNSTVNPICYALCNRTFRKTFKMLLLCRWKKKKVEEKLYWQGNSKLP

M3 muscarinic receptor = M3 muscarinic receptor (Homo sapiens, UniProt P20309); assay: R-SAT competitive antagonist assay; type: cell-based; settings: nr = no significant antagonist or inverse agonist activity up to 1 μM, nr* = nr but significant agonist activity
5-HT7A receptor = 5-HT7A receptor (Homo sapiens, UniProt P34969); assay: R-SAT inverse agonist assay
M2 muscarinic receptor = molecular target: T6, M2 muscarinic receptor (Homo sapiens, UniProt P08172); assay: R-SAT competitive antagonist assay; type: cell-based; parameters: expressed in transfected cells; host or cells: NIH/3T3; settings: nr = no significant antagonist or inverse agonist activity up to 1 μM, nr* = nr but significant agonist activity
T6 sequence (P08172 1-466): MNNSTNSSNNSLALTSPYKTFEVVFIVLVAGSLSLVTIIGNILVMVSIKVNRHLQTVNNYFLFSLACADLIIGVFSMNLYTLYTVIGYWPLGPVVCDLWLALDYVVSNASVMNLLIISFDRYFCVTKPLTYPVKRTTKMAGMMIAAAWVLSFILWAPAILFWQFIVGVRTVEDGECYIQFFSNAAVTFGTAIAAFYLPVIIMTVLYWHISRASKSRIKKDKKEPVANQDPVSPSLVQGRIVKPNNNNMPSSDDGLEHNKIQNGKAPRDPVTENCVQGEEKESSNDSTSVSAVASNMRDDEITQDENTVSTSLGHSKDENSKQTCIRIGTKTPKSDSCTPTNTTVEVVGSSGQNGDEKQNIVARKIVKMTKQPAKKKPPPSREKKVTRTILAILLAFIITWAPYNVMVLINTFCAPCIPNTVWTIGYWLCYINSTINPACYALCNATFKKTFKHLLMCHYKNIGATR

[4] = molecular target: T4, α1A (Alpha 1A) adrenergic receptor; assay: cell-based

Sequence of 5-HT7A receptor (P34969 1-445 isoform P34969-2): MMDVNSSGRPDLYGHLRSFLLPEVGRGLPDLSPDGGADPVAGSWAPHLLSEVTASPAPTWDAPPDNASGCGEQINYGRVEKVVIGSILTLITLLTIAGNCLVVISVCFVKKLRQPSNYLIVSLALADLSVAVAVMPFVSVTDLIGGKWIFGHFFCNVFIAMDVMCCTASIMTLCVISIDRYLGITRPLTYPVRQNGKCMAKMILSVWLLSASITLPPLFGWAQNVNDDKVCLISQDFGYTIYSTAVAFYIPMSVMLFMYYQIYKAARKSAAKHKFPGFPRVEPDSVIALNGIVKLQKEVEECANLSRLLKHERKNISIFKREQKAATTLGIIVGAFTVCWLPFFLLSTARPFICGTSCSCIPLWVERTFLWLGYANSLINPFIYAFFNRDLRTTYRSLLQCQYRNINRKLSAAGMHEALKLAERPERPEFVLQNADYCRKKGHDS
Sequence of M3 muscarinic receptor (P20309 whole entry): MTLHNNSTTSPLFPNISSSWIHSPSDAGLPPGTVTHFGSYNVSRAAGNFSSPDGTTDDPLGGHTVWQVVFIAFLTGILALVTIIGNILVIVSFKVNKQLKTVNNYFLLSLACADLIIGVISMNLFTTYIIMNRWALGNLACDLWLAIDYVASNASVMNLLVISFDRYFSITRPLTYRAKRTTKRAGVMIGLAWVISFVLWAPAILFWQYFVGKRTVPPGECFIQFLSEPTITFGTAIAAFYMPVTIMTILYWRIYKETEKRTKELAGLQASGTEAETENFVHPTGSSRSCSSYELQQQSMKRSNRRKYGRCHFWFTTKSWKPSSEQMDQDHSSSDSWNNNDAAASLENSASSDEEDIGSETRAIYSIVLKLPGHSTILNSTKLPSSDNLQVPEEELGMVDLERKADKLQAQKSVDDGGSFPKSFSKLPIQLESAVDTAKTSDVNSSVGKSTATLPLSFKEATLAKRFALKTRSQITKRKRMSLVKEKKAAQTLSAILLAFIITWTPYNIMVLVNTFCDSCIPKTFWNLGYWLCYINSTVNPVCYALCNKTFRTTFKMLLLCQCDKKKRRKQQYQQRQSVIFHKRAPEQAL
Sequence of 5-HT6A receptor (P50406 whole entry): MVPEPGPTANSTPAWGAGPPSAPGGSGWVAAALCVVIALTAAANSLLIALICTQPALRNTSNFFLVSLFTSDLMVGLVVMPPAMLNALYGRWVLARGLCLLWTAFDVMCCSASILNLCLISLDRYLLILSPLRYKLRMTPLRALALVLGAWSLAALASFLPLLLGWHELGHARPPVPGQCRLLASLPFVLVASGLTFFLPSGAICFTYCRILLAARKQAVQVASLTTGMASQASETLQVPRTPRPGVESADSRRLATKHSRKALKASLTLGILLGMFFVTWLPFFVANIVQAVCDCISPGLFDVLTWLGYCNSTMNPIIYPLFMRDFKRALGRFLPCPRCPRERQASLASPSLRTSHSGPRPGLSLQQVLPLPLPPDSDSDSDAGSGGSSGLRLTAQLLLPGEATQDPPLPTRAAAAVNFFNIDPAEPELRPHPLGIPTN

O=C1Cc2cc(CCN3CCN(c4nsc5ccccc45)CC3)c(Cl)cc2N1 [Ziprasidone, reference compound]
pKi M1, competitive antagonist (M1 muscarinic receptor): nr | agonist efficacy at human 5-HT1A receptors (5-HT1A receptor [1]): < 30% | pKi M4, competitive antagonist (M4 muscarinic receptor): nr | pEC50 5HT6A, inverse agonist (5-HT6A receptor): nr | Ki (5-HT1A receptor [2]): > 1000 nM | pKi 5-HT1A, competitive antagonist (5-HT1A receptor [2]; R-SAT, nr = no significant antagonist or inverse agonist activity up to 1 μM, nr* = nr but significant agonist activity): nr* and nr*^2 | pKi α1A, competitive antagonist [3]: 7.4 ± 0.2 | pKi M5, competitive antagonist (M5 muscarinic receptor): nr | pKi M3, competitive antagonist (M3 muscarinic receptor): nr | EC50 (5-HT7A receptor): 50.1 nM | pEC50 5HT7A, inverse agonist (5-HT7A receptor; R-SAT, nr = no significant antagonist or inverse agonist activity up to 1 μM): 7.3 ± 0.1 | pKi M2, competitive antagonist (M2 muscarinic receptor): nr | Ki [4]: 39.8 nM
